{"source": "ChEMBL document CHEMBL3399920", "about": "“Microwave-assisted synthesis, characterization and cytotoxic studies of novel estrogen receptor α ligands towards human breast cancer cells” (Bioorg Med Chem Lett, 2015)", "key": {"[1]": {"test_system": "MCF7", "test": "Cytotoxicity against human MCF7 cells after 48 hrs by MTT assay", "type": "functional, cell-based", "settings": "MCF7, 48 h"}, "[2]": {"test_system": "HepG2", "test": "Cytotoxicity against human HepG2 cells after 48 hrs by MTT assay", "type": "functional, cell-based", "settings": "HepG2, 48 h"}, "[3]": {"test_system": "MDA-MB-231", "test": "Cytotoxicity against human MDA-MB-231 cells after 48 hrs by MTT assay", "type": "functional, cell-based", "settings": "MDA-MB-231, 48 h"}, "[4]": {"test_system": "BT-549", "test": "Cytotoxicity against human BT549 cells after 48 hrs by MTT assay", "type": "functional, cell-based", "settings": "BT-549, 48 h"}, "[5]": {"test": "Cytotoxicity against human MCF10A cells after 72 hrs by MTT assay", "type": "cell-based", "settings": "MCF-10A"}}}
{"smiles": "Oc1ccccc1-c1ccc2ccccc2n1", "values": [{"measurement": "IC50", "setting": "[1]", "value": "> 50", "unit": "µM"}, {"measurement": "IC50", "setting": "[2]", "value": "> 50", "unit": "µM"}]}
{"smiles": "Cc1ccc2nc(-c3ccccc3Br)ccc2c1", "values": [{"measurement": "IC50", "setting": "[1]", "value": "> 50", "unit": "µM"}, {"measurement": "IC50", "setting": "[2]", "value": "> 50", "unit": "µM"}]}
{"smiles": "Clc1ccc(-c2ccc3ccccc3n2)c(Cl)c1", "values": [{"measurement": "IC50", "setting": "[1]", "value": 25, "unit": "µM"}, {"measurement": "IC50", "setting": "[2]", "value": 31.6, "unit": "µM"}, {"measurement": "IC50", "setting": "[3]", "value": "> 100", "unit": "µM"}, {"measurement": "IC50", "setting": "[4]", "value": "> 100", "unit": "µM"}, {"measurement": "IC50", "setting": "[5]", "value": "> 100", "unit": "µM"}]}
{"smiles": "Nc1ccc(-c2ccc3ccc(Cl)cc3n2)cc1", "values": [{"measurement": "IC50", "setting": "[1]", "value": 6, "unit": "µM"}, {"measurement": "IC50", "setting": "[2]", "value": 11, "unit": "µM"}, {"measurement": "IC50", "setting": "[3]", "value": "> 100", "unit": "µM"}, {"measurement": "IC50", "setting": "[4]", "value": "> 100", "unit": "µM"}, {"measurement": "IC50", "setting": "[5]", "value": "> 100", "unit": "µM"}]}
{"smiles": "Cc1ccc2nc(-c3ccc(Cl)cc3Cl)ccc2c1", "values": [{"measurement": "IC50", "setting": "[1]", "value": "> 50", "unit": "µM"}, {"measurement": "IC50", "setting": "[2]", "value": "> 50", "unit": "µM"}]}
{"smiles": "Brc1ccc(-c2ccc3ccccc3n2)cc1", "values": [{"measurement": "IC50", "setting": "[1]", "value": 12, "unit": "µM"}, {"measurement": "IC50", "setting": "[2]", "value": 9, "unit": "µM"}, {"measurement": "IC50", "setting": "[3]", "value": "> 100", "unit": "µM"}, {"measurement": "IC50", "setting": "[4]", "value": "> 100", "unit": "µM"}, {"measurement": "IC50", "setting": "[5]", "value": 60.3, "unit": "µM"}]}
{"smiles": "Cc1ccc2nc(-c3ccc(N)cc3)ccc2c1", "values": [{"measurement": "IC50", "setting": "[1]", "value": 34, "unit": "µM"}, {"measurement": "IC50", "setting": "[2]", "value": 41, "unit": "µM"}]}
{"smiles": "Cc1ccc2nc(-c3cc(O)ccc3O)ccc2c1", "values": [{"measurement": "IC50", "setting": "[1]", "value": 28, "unit": "µM"}, {"measurement": "IC50", "setting": "[2]", "value": 19, "unit": "µM"}]}
{"smiles": "Cc1ccc2nc(-c3cccc([N+](=O)[O-])c3)ccc2c1", "values": [{"measurement": "IC50", "setting": "[1]", "value": 23, "unit": "µM"}, {"measurement": "IC50", "setting": "[2]", "value": 37, "unit": "µM"}, {"measurement": "IC50", "setting": "[3]", "value": "> 100", "unit": "µM"}, {"measurement": "IC50", "setting": "[4]", "value": "> 100", "unit": "µM"}, {"measurement": "IC50", "setting": "[5]", "value": "> 100", "unit": "µM"}]}
{"smiles": "Cc1ccc2nc(-c3ccccc3)ccc2c1", "values": [{"measurement": "IC50", "setting": "[1]", "value": "> 50", "unit": "µM"}, {"measurement": "IC50", "setting": "[2]", "value": "> 50", "unit": "µM"}]}
